We go through 2 compounds from patent US10746749B2, “Ellagic acid formulations for use in coagulation assays” (Abbott Point of Care Inc., priority 2014, dated 2020).

The conditions of series [1]: cited from earlier work.
Series [2] has as its system whole blood. As to the kind of experiment: PT assay on sensor with SBQ-PVA immobilized substrate, heparin-spiked whole blood. As to the method: FIGS. 10 and 11 exemplify this concept as follows. A coagulation sensor was directly printed either with a large (FIG. 10) or small (FIG. 11) SBQ-PVA immobilized coagulation substrate. Subsequently, a PT coagulation activator was printed on top of the immobilized substrate matrix. These sensors were then tested with appropriate fluids to assess coagulation time. As with the results from FIGS. 5 and 6, one benefit of printing more of the immobilized substrate matrix is that the increased amount of immobilized substrate matrix led to an increase in pA. Also, when heparin is spiked into the whole blood sample, the clotting times are not as extended as they are expected to be (FIGS. 10 and 11 (response curves 181) (heparin spike) should be more similar to response curves 182 (abnormally long control fluid) clotting times, but are actually behaving more like whole blood without heparin, (response curves 183)). […] Further, applying a larger amount of the immobilizing matrix results in a greater neutralizing effect (e.g., compare the bias between whole blood and whole blood with heparin in FIGS. 10 and 11). […] In both FIGS. 10 and 11, the heparin spiked blood behaves more like unaltered whole blood than it does like an abnormally long control fluid, reflecting that there is an interferent/heparin neutralizing effect.

Regarding `O=c1oc2c(O)c(O)cc3c(=O)oc4c(O)c(O)cc1c4c23` [ellagic acid], the solubility in methanol result in series [1] was “slightly soluble”. Regarding heparin, the “extension of PT clotting time versus whole blood” value in series [2] (heparin 1 IU/mL, smaller print amount of SBQ-PVA neutralizing matrix (FIG. 11)) worked out at 55%; in series [2] (heparin added to 1 IU/mL, large SBQ-PVA matrix print (FIG. 10)), 14%.
